ChEMBL document CHEMBL5143637, “Design, synthesis and antibacterial activity against pathogenic mycobacteria of conjugated hydroxamic acids, hydrazides and O-alkyl/O-acyl protected hydroxamic derivatives” (Bioorg Med Chem Lett, 2022)
≈ marks a conversion by molar mass, not a printed value.

Test system: Mycobacterium tuberculosis variant bovis
Experiment: Antimycobacterial activity against Mycobacterium bovis BCG assessed as inhibition of bacterial growth incubated for 4 days by alamar blue assay
Format: functional
Settings: 96 h, time 4 day

Compound: CCCC[C@H](CN(O)C=O)C(=O)N1CCC[C@H]1C(=O)Nc1ccccn1
- MIC: 0.2 µg/mL (≈ 0.552 µM)
